Results published in patent US20240225985A1, “BRIGHTENING COMPOSITIONS AND METHODS OF USE” (Alastin Skincare, Inc., priority 2021, published 2024).
Ends that are not written are not given here. * marks the point of attachment. Palmitoyl = CCCCCCCCCCCCCCCC(=O)*

Assays:
[1] = tested on: melanocytes; test: In vitro melanocyte comparative analysis via absorbance readings (melanin production); assay type: cell-based; conditions: for Regulation of melanogenesis (decreased absorption denoting decreased melanin formation): melanocytes, summary of Table 10
Procedure: Melanocytes were cultured in 6-well plates containing growth media. Once confluent, 2 concentrations of each of the 10 compounds were added to the cells in triplicate wells for 4 days. There were a total of eleven 6-well plates, one for each compound treatment and one for the vehicle control. Absorbance readings were taken on the lysates prepared for each well of the 6-well plates, normalizing for cells counts. The model was initially tested for accuracy and validated using hexapeptide-12 in view of strong gene expression results with melanocyte cell line in the first study—confirmation of decreased stimulation was obtained. Additional validation was carried out using MSH addition to media to confirm increased stimulation of melanin production. The following compounds used in this study are seen in Table 9.

[2] = tested on: MITF; test: In vitro MITF gene expression test in cultured fibroblasts; assay type: cell-based; conditions: 48 hours, 80 ppm Hexapeptide-12, 120 ppm Tripeptide-1 or blend of both, negative = downregulation
Procedure: Microphthalmia-associated transcription factor (MITF) is a master regulator of pigmentation and melanin transfer and a potential new target for hyperpigmentation and melanoma. In vitro MITF gene expression tests were carried out to ascertain differences between individual peptides (tripeptide-1 and hexapeptide-12) and their combination in terms of MITF downregulation.
Specifically, the tests were conducted by culturing fibroblasts and then adding tripeptide-1, hexapeptide-12, or a combination of both. After 48 hours, MITF gene expression was analyzed. […] This increased expression continued to manifest and increased even further at the 72 hour time point.

[3] = tested on: melanocytes; test: Gene expression study (RNA sequencing) in PGE2-induced melanocytes; assay type: cell-based, human; conditions: melanocytes induced with 10 uM PGE2, 24 hours of compound exposure
Procedure: Four cell types associated with pigmentation pathways—melanocytes, keratinocytes, fibroblasts and endothelial (HUVEC) cells—were analyzed for gene expression.
To simulate the UV stimulatory pigmentation pathway process, melanocytes were pre-treated with PGE2, a normal direct consequence of UV light exposure usually emanating from exposed keratinocytes. After the 48 hour attachment culture, these melanocytes were induced with 10 uM PGE2 in melanocyte media for 24 hrs. The four primary human adult dermal cell lines were cultured and plated in well plates in triplicate and then treated with 11 different compound treatments (plus DMSO control). After 48 hours of attachment culture, the remaining fibroblasts, HUVECs and keratinocytes were treated with the test compounds listed in Table 8.
After 24 hours of compound exposure, RNA lysate preparation was carried out and samples were shipped to MedGenome for RNA extraction, library construction and sequencing to 25M paired end 100 bp reads per sample. Library prep and sequencing was completed at MedGenome.

[4] = tested on: endothelial cells; test: Gene expression of PMEL, tyrosinase genes, MC1/4R, EDNRB, MITF, ERK1/2, JNK, AKT1; assay type: cell-based; conditions: after treatment of endothelial cells as printed
Description: The methods similar to Examples 3-4 were used to measure expression of PMEL, tyrosinase genes, MC1/4R, EDNRB, MITF, ERK1/2, JNK, and ANKT1.
FIGS. 10A-10D illustrates the expression of PMEL (FIG. 10A), Tyrosinase genes (FIG. 10B), MC1/4R (FIG. 10C), and EDNRB (FIG. 10D) after treatment of endothelial cells with lactoferrin (Lacto), peptide derived from lactoferrin (TCV), hexapeptide-12 (Hex12), tripeptide-1 and hexapeptide-12 (TriHex), hexapeptide-11 (Hex11), tranexamic acid (Tran acid) octapeptide (Octa), phosphatidylserine (phos), Cannabidiol (CBD), and all (total).
MITF is regulated by phosphorylation. Specifically, the MAPK and Akt pathways are known to phosphorylate MITF at certain sites. FIGS. 12A-12C illustrate the expression of ERK1/2 (MAPK3/MAPK1) (FIG. 12A), JNK (FIG. 12B), AKT1 (FIG. 12C) after treatment of endothelial cells with lactoferrin (Lacto), peptide derived from lactoferrin (TCV), hexapeptide-12 (Hex12), tripeptide-1 and hexapeptide-12 (TriHex), hexapeptide-11 (Hex11), octapeptide (Octa), phosphatidylserine (phos), Cannabidiol (CBD), and all (total).

[5] = higher concentration (Lactoferrin 1000, HEX-11 200, Phosphatidylserine 500, Silymarin 20, Sesamol 100, Tranexamic Acid 1000, HEX-12 4.9, ug/mL or ug/uL; Phytoene/Phytofluene 5.00%), 4 days, control = 0.0 row
[6] = lower concentration (Lactoferrin 500, HEX-11 100, Phosphatidylserine 250, Silymarin 10, Sesamol 50, Tranexamic Acid 500, HEX-12 2.9, ug/mL or ug/uL; Phytoene/Phytofluene 2.50%), 4 days, control = 0.0 row

## Oc1ccc2c(c1)OCO2 [Sesamol, 3,4-Methylenedioxyphenol]
[1]; [5]
  Absorbance 405 nm: 0.465
  Absorbance 490 nm: 0.252
  Absorbance 492 nm: 0.183
[1]; [6]
  Absorbance 405 nm: 0.602
  Absorbance 490 nm: 0.361
  Absorbance 492 nm: 0.24
[1]
  Regulation of melanogenesis (decreased absorption denoting decreased melanin formation): Regulation of melanogenesis was also observed

## NC[C@H]1CC[C@H](C(=O)O)CC1 [Tranexamic Acid, Tranexamic acid]
[1]; [5]
  Absorbance 405 nm: 0.406
  Absorbance 490 nm: 0.243
  Absorbance 492 nm: 0.176
[1]; [6]
  Absorbance 405 nm: 0.395
  Absorbance 490 nm: 0.254
  Absorbance 492 nm: 0.187
[1]
  Regulation of melanogenesis (decreased absorption denoting decreased melanin formation): Regulation of melanogenesis was also observed

## Hexapeptide-12: hexapeptide-12; VGVAPG per Pal-VGVAPG (SEQ ID NO:25) in b49 (Palmitoyl-VGVAPG)
[2]
  MITF gene expression (down-/upregulation): −1.16
[3]
  melanogenic gene activity in melanocytes: particularly dominant in melanogenic activity
[3]; listed as hexapeptide-12
  melanogenic gene activity in melanocytes: significant effects on melanogenesis activity
[1]; [5]
  Absorbance 405 nm: 0.96
  Absorbance 490 nm: 0.64
  Absorbance 492 nm: 0.46
[1]; [6]
  Absorbance 405 nm: 1.32
  Absorbance 490 nm: 0.94
  Absorbance 492 nm: 0.64
[1]
  Regulation of melanogenesis (decreased absorption denoting decreased melanin formation): Regulation of melanogenesis was observed
[4]
  melanogenic activity (expression of PMEL, tyrosinase genes, MC1/4R, EDNRB, kinases): significant effects on such melanogenic activity
[4]; listed as hexapeptide-12
  melanogenic activity (expression of PMEL, tyrosinase genes, MC1/4R, EDNRB, kinases): robust melanogenic activity

## MSH: MSH addition to media to confirm increased stimulation of melanin production (SYSMEHFRWGKPV; ends and bridges not checked; UniProt P01189 138-150, looked up)
[1]; MSH 10 nm media (validation of increased melanin production), control 1.649
  Absorbance 405 nm: 1.921
[1]; MSH 10 nm media, control 0.501
  Absorbance 492 nm: 0.573
[1]; MSH 10 nm media, control 0.971
  Absorbance 490 nm: 1.155

## Tripeptide-1
[2]; listed as Tripeptide
  MITF gene expression (down-/upregulation): 1.72
[2]; listed as tripeptide-1
  MITF gene expression (down-/upregulation): +1.72
